Source: patent publication US20080103123A1, “New compounds” (Biovitrum, priority 2006, published 2008)
Where two headings read alike, the source gives them in different places.

Target: T1, human GPR119 receptor (Homo sapiens, UniProt Q8TDV5)
T1 construct: expressed in transfected cells
T1 sequence (Q8TDV5 1-335): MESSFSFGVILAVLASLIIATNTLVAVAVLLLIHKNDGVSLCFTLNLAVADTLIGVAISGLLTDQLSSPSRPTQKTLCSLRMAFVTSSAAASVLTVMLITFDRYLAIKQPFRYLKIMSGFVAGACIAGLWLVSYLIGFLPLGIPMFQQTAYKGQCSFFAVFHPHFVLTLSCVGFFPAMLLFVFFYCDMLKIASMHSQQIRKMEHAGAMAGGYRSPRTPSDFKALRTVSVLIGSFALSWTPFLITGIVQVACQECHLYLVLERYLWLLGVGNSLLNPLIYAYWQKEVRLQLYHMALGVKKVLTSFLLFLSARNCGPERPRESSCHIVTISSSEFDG
Experiment: Human GPR119 Activity Assay (cAMP, HTRF)
Format: cell-based
Method: Human GPR119 Activity Assay
Agonists to the human GPR119 receptor were characterized by measuring human GPR119 receptor-mediated stimulation of cyclic AMP (cAMP) in HEK 293 cells expressing the human GPR119 receptor.
Briefly, cAMP content was determined using a cAMP kit based on HTRF technology (Homogeneous Time-Resolved Fluorescence, Cisbio Cat. no. 62AM2PEC). HEK293 cells stably expressing the human GPR119 receptor (HEK293-hGPR119 cells) were cultured in DMEM (Gibco # 31966-021) supplemented with 10% Bovine Calf Serum (Hyclone # SH30072.03), and, 500 μg/mL Hygromycin B (Roche Diagnostics 843555). At 80% confluency, cells were detached using Trypsine and aliquoted at a density of 5×10^6 cells/mL in freezing medium (DMEM (Gibco # 31966-021), 20% BCS (Hyclone # SH30072.03), 10% DMSO (Sigma #D2650) and stored at −135° C. On the experimental day, HEK293-hGPR119 cells were thawn and diluted to 0.4×10^6 cells/mL in assay buffer (1×HBSS (Gibco Cat. no. 14025-049), 20 mM Hepes (Gibco Cat. no. 15630-056), 0.1% BSA, pH 7.4) and incubated with test substances for 20 min at room temperature. After addition of HTRF reagents diluted in lysis buffer, the 96- or 384-well plates were incubated 1 hour, followed by measuring the fluorescence ratio at 665 nm/620 nm. Test substances was diluted in compound buffer (1×HBSS (Gibco Cat. no. 14025-049), 20 mM Hepes (Gibco Cat. no. 15630-056), 0.1% BSA, 2 mM IBMX (Sigma-Aldrich Cat. No. 17018, pH 7.4). The potency of the agonist was quantified by determine the concentration that cause 50% activation of hGPR119 evoked increase in cAMP, EC50.

[1] = stimulation of cAMP in HEK293 cells stably expressing human GPR119, 20 min at room temperature, HTRF, read-out: EC50 (μM), Agonist potency at the human GPR119

Row | EC50 [1] [µM] | Compound | EC50 [µM]
1 | 0.11 | CS(=O)(=O)c1ccc(-c2ccc(OCC3CCN(C(=O)OCc4ccccc4)CC3)nc2)cc1 [EXAMPLE A2, Benzyl 4-[({5-[4-(methylsulfonyl)phenyl]pyridin-2-yl}oxy)methyl]piperidine-1-carboxylate] | –
2 | 0.139 | CN(Cc1ccc(-c2ccc(S(C)(=O)=O)cc2)cn1)C1CCN(C(=O)OC(C)(C)C)CC1 [EXAMPLE A39, tert-Butyl 4-[methyl({5-[4-(methylsulfonyl)phenyl]pyridin-2-yl}methyl)amino]-piperidine-1-carboxylate] | –
3 | – | CN(Cc1ccc(-c2ccc(S(C)(=O)=O)cc2)nc1)C1CCN(C(=O)OC(C)(C)C)CC1 [EXAMPLE B2, tert-Butyl 4-[methyl({6-[4-(methylsulfonyl)phenyl]pyridin-3-yl}methyl)amino]-piperidine-1-carboxylate] | 0.022
